ChEMBL document CHEMBL1201862, “PubChem BioAssay data set” (2004)
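These data come from cells grown in 96-well plates and exposed to compound for 48 hours at five concentrations. GI50: concentration for 50% inhibition of growth.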 Active and inactive are the calls of the source. Cut-off read from the data, not from the text of the source: active = GI50 up to about 1.1 µM and inactive = higher.

Tests used:
Assay in all cases: growth of human tumour cells (NCI), 48 h
SK-MEL-5 = system: SK-MEL-5
A549 = system: A549
SW-620 = system: SW-620
TK-10 = system: TK-10
EKVX = system: EKVX
ACHN = system: ACHN
RXF 393 = system: RXF 393
LOX IMVI = system: LOX IMVI
SF-295 = system: SF-295
MOLT-4 = system: MOLT-4
SN12C = system: SN12C
CAKI-1 = system: CAKI-1
IGROV-1 = system: IGROV-1
OVCAR-4 = system: OVCAR-4
SK-OV-3 = system: SK-OV-3
SF-268 = system: SF-268
SK-MEL-2 = system: SK-MEL-2
KM12 = system: KM12
NCI-H522 = system: NCI-H522

Measured: GI50

O=C1CCC2COc3ccc(O)c1c32 (centres undefined)
inactive: SK-MEL-5 > 100 µM | A549 > 100 µM | SW-620 > 100 µM | TK-10 > 100 µM | EKVX 51.2 µM | ACHN > 100 µM | RXF 393 > 100 µM | LOX IMVI > 100 µM | SF-295 > 100 µM | MOLT-4 > 100 µM | SN12C > 100 µM | CAKI-1 > 100 µM | IGROV-1 > 100 µM | OVCAR-4 > 100 µM | SK-OV-3 > 100 µM

C=C1Oc2nc3ccccc3c(=O)n2C1(C)C
inactive: SK-MEL-5 > 100 µM | A549 > 100 µM | SW-620 > 100 µM | SF-268 > 100 µM | TK-10 > 100 µM | EKVX > 100 µM | ACHN > 100 µM | SK-MEL-2 > 100 µM | LOX IMVI > 100 µM | SF-295 > 10 µM | MOLT-4 > 100 µM | SN12C > 100 µM | CAKI-1 > 100 µM | KM12 > 10 µM | NCI-H522 > 100 µM | IGROV-1 > 100 µM | OVCAR-4 > 100 µM | SK-OV-3 > 100 µM

COc1ccc2c(c1)OCCC1=C2SCC2(C)CCN=C12 (centres undefined)
inactive: SK-MEL-5 46.5 µM | A549 > 100 µM | SW-620 > 100 µM | SF-268 > 100 µM | TK-10 > 100 µM | RXF 393 > 100 µM | LOX IMVI > 100 µM | SF-295 > 100 µM | MOLT-4 52 µM | SN12C > 100 µM | KM12 > 100 µM | NCI-H522 > 100 µM | IGROV-1 > 100 µM | OVCAR-4 > 100 µM | SK-OV-3 > 100 µM

O=c1c2ccccc2nc(-c2ccc(Br)cc2)n1NC1OC(CO)C(O)C(O)C1O (centres undefined)
inactive: SK-MEL-5 75.9 µM | A549 > 100 µM | SW-620 > 100 µM | SF-268 69.5 µM | TK-10 > 100 µM | EKVX 78.3 µM | ACHN > 100 µM | SK-MEL-2 > 100 µM | SF-295 > 100 µM | MOLT-4 31.6 µM | SN12C > 100 µM | CAKI-1 > 100 µM | KM12 > 100 µM | NCI-H522 81.7 µM | IGROV-1 > 100 µM | OVCAR-4 42 µM | SK-OV-3 > 100 µM

COc1ccc(/N=C\c2cc(OC)c(OC)c(OC)c2)cc1
inactive: SK-MEL-5 > 100 µM | A549 > 100 µM | SW-620 14.3 µM | SF-268 > 100 µM | TK-10 > 100 µM | EKVX > 100 µM | ACHN 94 µM | RXF 393 > 100 µM | SK-MEL-2 > 100 µM | LOX IMVI 17.5 µM | MOLT-4 > 100 µM | SN12C > 100 µM | KM12 > 100 µM | IGROV-1 > 100 µM | OVCAR-4 > 100 µM | SK-OV-3 > 100 µM

C(=C\c1csnn1)/c1cccnc1
inactive: A549 > 100 µM | SW-620 > 100 µM | SF-268 > 100 µM | TK-10 > 100 µM | EKVX > 100 µM | ACHN > 100 µM | RXF 393 > 100 µM | SK-MEL-2 > 100 µM | LOX IMVI > 100 µM | SF-295 > 100 µM | MOLT-4 > 100 µM | SN12C > 100 µM | KM12 > 100 µM | NCI-H522 > 100 µM | OVCAR-4 > 100 µM | SK-OV-3 > 100 µM

COc1cccc(/C=C2\C(=O)N(C(=O)Cc3ccccc3)N=C2C)c1
inactive: SK-MEL-5 > 100 µM | A549 > 100 µM | SW-620 > 100 µM | SF-268 > 100 µM | TK-10 > 100 µM | EKVX > 100 µM | ACHN > 100 µM | SK-MEL-2 > 100 µM | LOX IMVI > 100 µM | SF-295 > 100 µM | MOLT-4 > 100 µM | SN12C > 100 µM | CAKI-1 > 100 µM | KM12 > 100 µM | NCI-H522 > 100 µM | OVCAR-4 > 100 µM

COc1cc(C2C(C(=O)NCc3ccccc3)=C(C)NC(C)=C2C(=O)NCc2ccccc2)ccc1O
inactive: SK-MEL-5 59.4 µM | A549 77.4 µM | SW-620 37.5 µM | SF-268 34.9 µM | TK-10 35.2 µM | EKVX 16.6 µM | ACHN 42.5 µM | RXF 393 28.8 µM | SK-MEL-2 22.3 µM | LOX IMVI 32.6 µM | SF-295 46 µM | MOLT-4 20.4 µM | SN12C 31.5 µM | CAKI-1 24.9 µM | IGROV-1 34.4 µM | OVCAR-4 40.1 µM

CSC(=N)N1N=C2/C(=C/c3ccccc3)CCC[C@H]2[C@H]1c1ccccc1
inactive: A549 4.49 µM | SW-620 3.91 µM | SF-268 15.2 µM | TK-10 12.7 µM | EKVX 4.56 µM | ACHN 3.36 µM | RXF 393 2.86 µM | SK-MEL-2 4.2 µM | LOX IMVI 4.19 µM | SF-295 4.69 µM | MOLT-4 2.69 µM | SN12C 3.92 µM | KM12 9.84 µM | NCI-H522 4.23 µM | IGROV-1 2.12 µM | OVCAR-4 2.58 µM | SK-OV-3 3.68 µM

O=C1NC2(CCCCC2)C2CCCCC(O)C12 (centres undefined)
inactive: A549 > 100 µM | SW-620 > 100 µM | SF-268 > 100 µM | TK-10 > 100 µM | EKVX > 100 µM | ACHN > 100 µM | RXF 393 > 100 µM | SK-MEL-2 > 100 µM | SF-295 > 100 µM | MOLT-4 > 100 µM | SN12C > 100 µM | CAKI-1 > 100 µM | KM12 > 100 µM | IGROV-1 > 100 µM

C=C1CCC2[C@@H](CCC3[C@]2(C)CCC[C@]3(C)C(=O)OC)C1CCO (some centres undefined)
inactive: SK-MEL-5 4.53 µM | A549 14.4 µM | SW-620 13.1 µM | SF-268 11.3 µM | TK-10 18.6 µM | EKVX 20.5 µM | ACHN 14.8 µM | SK-MEL-2 15.1 µM | SF-295 16.3 µM | MOLT-4 4 µM | SN12C 11.9 µM | CAKI-1 12.1 µM | KM12 12.5 µM | NCI-H522 5.2 µM | IGROV-1 13.6 µM | OVCAR-4 12.8 µM | SK-OV-3 29.3 µM

C=C1C(=O)O[C@@H]2C[C@@]3(C)[C@H](O)CCC(=C)[C@@H]3C[C@H]12 [ASPERILIN]
inactive: SK-MEL-5 4.26 µM | A549 21.5 µM | SW-620 3.44 µM | SF-268 15.6 µM | TK-10 12.5 µM | EKVX 16.1 µM | ACHN 14.4 µM | SK-MEL-2 11.6 µM | LOX IMVI 5.27 µM | SF-295 14.1 µM | SN12C 5.94 µM | CAKI-1 5.58 µM | KM12 3.49 µM | NCI-H522 4.16 µM | IGROV-1 20.5 µM | OVCAR-4 11.8 µM | SK-OV-3 22.3 µM
